Data published in ChEMBL document CHEMBL5344406, “1,2,3-Triazole-containing hybrids with potential antibacterial activity against ESKAPE pathogens” (2022).
In brackets after ≈: the same amount, converted by molar mass.

Assays:
Format in all cases: functional
Escherichia coli [1] = assay: Antibacterial activity against Escherichia coli clinical isolate assessed as bacterial growth inhibition by disk diffusion method
Staphylococcus aureus [2] = assay: Potency index, ratio of azithromycin MIC to test compound MIC for antibacterial activity against methicillin-resistant Staphylococcus aureus ATCC 43300 assessed as bacterial growth inhibition incubated for 24 hrs by CLSI based broth microdilution method
Streptococcus pneumoniae [3] = assay: Antibacterial activity against erythromycin-resistant Streptococcus pneumoniae AB11 expressing ermB/mefA assessed as bacterial growth inhibition incubated for 24 hrs by CLSI based broth microdilution method
Streptococcus pyogenes [4] = assay: Antibacterial activity against erythromycin-resistant Streptococcus pyogenes clinical isolate 2 assessed as bacterial growth inhibition incubated for 24 hrs by CLSI based broth microdilution method
Staphylococcus aureus [5] = assay: Antibacterial activity against methicillin-resistant Staphylococcus aureus ATCC 43300 assessed as bacterial growth inhibition incubated for 24 hrs by CLSI based broth microdilution method
Streptococcus pneumoniae [6] = assay: Antibacterial activity against erythromycin-resistant Streptococcus pneumoniae B1 expressing ermB assessed as bacterial growth inhibition incubated for 24 hrs by CLSI based broth microdilution method
Streptococcus pneumoniae [7] = assay: Potency index, ratio of azithromycin MIC to test compound MIC for antibacterial activity against erythromycin-resistant Streptococcus pneumoniae B1 expressing ermB assessed as bacterial growth inhibition incubated for 24 hrs by CLSI based broth microdilution method
Streptococcus pneumoniae [8] = assay: Potency index, ratio of azithromycin MIC to test compound MIC for antibacterial activity against erythromycin-resistant Streptococcus pneumoniae AB11 expressing ermB/mefA assessed as bacterial growth inhibition incubated for 24 hrs by CLSI based broth microdilution method
Staphylococcus aureus [9] = assay: Antibacterial activity against penicillin-resistant Staphylococcus aureus ATCC 31007 assessed as bacterial growth inhibition incubated for 24 hrs by CLSI based broth microdilution method
Staphylococcus aureus [10] = assay: Antibacterial activity against Staphylococcus aureus clinical isolate assessed as bacterial growth inhibition by disk diffusion method
Staphylococcus aureus [11] = assay: Potency index, ratio of azithromycin MIC to test compound MIC for antibacterial activity against penicillin-resistant Staphylococcus aureus ATCC 31007 assessed as bacterial growth inhibition incubated for 24 hrs by CLSI based broth microdilution method
Streptococcus pyogenes [12] = assay: Potency index, ratio of azithromycin MIC to test compound MIC for antibacterial activity against erythromycin-resistant Streptococcus pyogenes clinical isolate 2 assessed as bacterial growth inhibition incubated for 24 hrs by CLSI based broth microdilution method
Escherichia coli [13] = assay: Antibacterial activity against multidrug-resistant Escherichia coli assessed as bacterial growth inhibition incubated for 24 hrs by […] method
Staphylococcus aureus [14] = assay: Antibacterial activity against Staphylococcus aureus ATCC 43300 assessed as bacterial growth inhibition measured for 5 to 20 mins by broth dilution method; conditions: time 5-20 min
Pseudomonas aeruginosa [15] = assay: Antibacterial activity against Pseudomonas aeruginosa ATCC 10145 assessed as bacterial growth inhibition measured for 5 to 20 mins by broth dilution method; conditions: time 5-20 min
Klebsiella pneumoniae [16] = assay: Antibacterial activity against Klebsiella pneumoniae assessed as bacterial growth inhibition by broth microdilution method
Escherichia coli [17] = assay: Antibacterial activity against Escherichia coli assessed as bacterial growth inhibition by broth microdilution method
Staphylococcus aureus [18] = assay: Antibacterial activity against Staphylococcus aureus assessed as bacterial growth inhibition by broth microdilution method
[19] = system: Staphylococcus epidermidis; assay: Antibacterial activity against methicillin-sensitive Staphylococcus epidermidis assessed as bacterial growth inhibition
Escherichia coli [20] = assay: Antibacterial activity against Escherichia coli assessed as bacterial growth inhibition
Klebsiella pneumoniae [21] = assay: Antibacterial activity against Klebsiella pneumoniae assessed as bacterial growth inhibition
Providencia rettgeri = assay: Antibacterial activity against Providencia rettgeri assessed as bacterial growth inhibition
Klebsiella aerogenes = assay: Antibacterial activity against Enterobacter aerogenes assessed as bacterial growth inhibition
Enterobacter cloacae = assay: Antibacterial activity against Enterobacter cloacae assessed as bacterial growth inhibition
Escherichia coli [22] = assay: Antibacterial activity against Escherichia coli producing extended spectrum beta-lactamases assessed as bacterial growth inhibition
Enterococcus faecium = assay: Antibacterial activity against Enterococcus faecium assessed as bacterial growth inhibition
Staphylococcus aureus [23] = assay: Antibacterial activity against methicillin-sensitive Staphylococcus aureus assessed as bacterial growth inhibition
Pseudomonas aeruginosa [24] = assay: Antibacterial activity against Pseudomonas aeruginosa assessed as bacterial growth inhibition
Enterococcus faecalis = assay: Antibacterial activity against Enterococcus faecalis assessed as bacterial growth inhibition
Klebsiella pneumoniae [25] = assay: Antibacterial activity against Klebsiella pneumoniae producing extended spectrum beta-lactamases assessed as bacterial growth inhibition
Proteus vulgaris = assay: Antibacterial activity against Proteus vulgaris assessed as bacterial growth inhibition
Staphylococcus aureus [26] = assay: Antibacterial activity against methicillin-resistant Staphylococcus aureus assessed as bacterial growth inhibition by agar dilution method
Pseudomonas aeruginosa [27] = assay: Antibacterial activity against Pseudomonas aeruginosa assessed as bacterial growth inhibition by broth dilution method
Klebsiella pneumoniae [28] = assay: Antibacterial activity against Klebsiella pneumoniae assessed as bacterial growth inhibition by broth dilution method
Staphylococcus aureus [29] = assay: Potency index, ratio of Norfloxacin MIC to test compound MIC for antibacterial activity against Staphylococcus aureus assessed as bacterial growth inhibition by broth dilution method
Staphylococcus aureus [30] = assay: Antibacterial activity against multidrug-resistant Staphylococcus aureus clinical isolate assessed as bacterial growth inhibition by broth dilution method
Staphylococcus aureus [31] = assay: Antibacterial activity against Staphylococcus aureus assessed as bacterial growth inhibition by broth dilution method

SMILES: O=C(N[C@H](CO)[C@H](O)c1ccc([N+](=O)[O-])cc1)C(Cl)Cl [CHLORAMPHENICOL]
- MIC (Escherichia coli [1]): 22.4 µg/mL (≈ 69.3 µM)
- Ratio (Staphylococcus aureus [2]): >16
- MIC (Streptococcus pneumoniae [3]): > 256 µg/mL
- MIC (Streptococcus pyogenes [4]): > 256 µg/mL
- MIC (Staphylococcus aureus [5]): > 256 µg/mL
- MIC (Streptococcus pneumoniae [6]): > 256 µg/mL
- Ratio (Streptococcus pneumoniae [7]): >16
- Ratio (Streptococcus pneumoniae [8]): >16
- MIC (Staphylococcus aureus [9]): > 256 µg/mL
- MIC (Staphylococcus aureus [10]): 11.6 µg/mL (≈ 35.9 µM)
- Ratio (Staphylococcus aureus [11]): >16
- Ratio (Streptococcus pyogenes [12]): >16

SMILES: c1ccc(-n2cc(COc3ccc(-c4nc5ccccc5s4)cc3)nn2)cc1
- MIC (Escherichia coli [13]): 7.99 µg/mL (≈ 20.8 µM)

SMILES: COCCOCCOCCOC(=O)c1cccc(-n2cc(CO[C@@H]3O[C@H](COC(C)=O)[C@H](OC(C)=O)[C@H](OC(C)=O)[C@H]3OC(C)=O)nn2)c1
- MIC (Staphylococcus aureus [14]): 5 µg/mL (≈ 7.19 µM)
- MIC (Pseudomonas aeruginosa [15]): 5 µg/mL (≈ 7.19 µM)

SMILES: COC(=O)[C@H](Cc1cn(Cc2cn(-c3ccccc3[N+](=O)[O-])nn2)c2ccccc12)NC(=O)[C@@H](C)c1ccc2cc(OC)ccc2c1
- MIC (Klebsiella pneumoniae [16]): 25 µg/mL (≈ 39.5 µM)
- MIC (Escherichia coli [17]): 25 µg/mL (≈ 39.5 µM)
- MIC (Staphylococcus aureus [18]): 25 µg/mL (≈ 39.5 µM)

SMILES: CO/N=C1\C(=O)N(Cc2cn(CC(=O)N3CCC[C@@H]4CN(c5c(F)cc6c(=O)c(C(=O)O)cn(C7CC7)c6c5OC)C[C@@H]43)nn2)c2ccc(C)cc21
- MIC [19]: ≤ 0.03 µg/mL
- MIC (Escherichia coli [20]): ≤ 0.03 µg/mL
- MIC (Klebsiella pneumoniae [21]): ≤ 0.03 µg/mL
- MIC (Providencia rettgeri): ≤ 0.03 µg/mL
- MIC (Klebsiella aerogenes): ≤ 0.03 µg/mL
- MIC (Enterobacter cloacae): ≤ 0.03 µg/mL
- MIC (Escherichia coli [22]): ≤ 0.03 µg/mL
- MIC (Enterococcus faecium): ≤ 0.03 µg/mL
- MIC (Staphylococcus aureus [23]): ≤ 0.03 µg/mL
- MIC (Pseudomonas aeruginosa [24]): ≤ 0.03 µg/mL
- MIC (Enterococcus faecalis): ≤ 0.03 µg/mL
- MIC (Klebsiella pneumoniae [25]): ≤ 0.03 µg/mL
- MIC (Proteus vulgaris): ≤ 0.03 µg/mL

SMILES: COc1cc(/C=C/c2ccc(O)cc2)cc(OC)c1 [PTEROSTILBENE]
- MIC (Staphylococcus aureus [26]): 41 µg/mL (≈ 160 µM)

SMILES: Clc1cccc(Cn2cc(COc3ccc(-c4nc5ccccc5s4)cc3)nn2)c1
- MIC (Escherichia coli [13]): 8.02 µg/mL (≈ 18.5 µM)

SMILES: CC1(C)S[C@@H]2[C@H](NC(=O)Cc3ccccc3)C(=O)N2[C@H]1C(=O)O [PENICILLIN G]
- MIC (Pseudomonas aeruginosa [27]): 18.8 µg/mL (≈ 56.1 µM)
- MIC (Klebsiella pneumoniae [28]): 9.37 µg/mL (≈ 28 µM)

SMILES: CC1(C)S[C@@H]2[C@H](NC(=O)[C@H](N)c3ccc(O)cc3)C(=O)N2[C@H]1C(=O)O [AMOXICILLIN]
- MIC (Klebsiella pneumoniae [16]): 25 µg/mL (≈ 68.4 µM)
- MIC (Escherichia coli [17]): 25 µg/mL (≈ 68.4 µM)
- MIC (Staphylococcus aureus [18]): 25 µg/mL (≈ 68.4 µM)

SMILES: CC(=O)OC[C@@H]1O[C@H](n2cc(Cn3c(=O)c4ccccc4n(CCCCCCCCCC[P+](c4ccccc4)(c4ccccc4)c4ccccc4)c3=O)nn2)[C@@H](OC(C)=O)[C@H]1OC(C)=O.[Br-]
- Ratio (Staphylococcus aureus [29]): 7.5
- MIC (Staphylococcus aureus [30]): 1 µg/mL
- MIC (Staphylococcus aureus [31]): 1 µg/mL
